Measured values: patent publication US5096924A, “Anticancer antibiotic MI43-37F11 substance” (501 Azidan Hojin Biseibutsu Kagaku Kenkyu Kai, priority 1989, dated 1992)
Values after ≈ are worked out from the molar mass of the structure shown.

Legend:
Ehrlich carcinoma = assay: Activity against Ehrlich carcinoma (general statement); type: in vivo; settings: general statement in words
Protocol: (a) Experiments for therapeutic treatment of Ehrlich carcinoma-bearing mice were conducted by intraperitoneal injection of the antibiotic MI43-37F11 substance. Thus, a cell suspension of Ehrlich ascites carcinoma cells was subcutaneously inoculated at the abdominal region of ICR mice (female, 6-week old, 4 mice in each treated group) so that the number of the carcinoma cells as subcutaneously transplanted was 2×10^6 cells per mouse. After the transplantation of the carcinoma cells, the antibiotic MI43-37F11 substance was administered by intraperitoneal injection to the mice having the transplanted and firmly grown carcinoma cells, according to the following schedule of administration. […]
On the 15th day after the transplantation of the carcinoma cells, the mass of the tumor (carcinoma) was surgically removed out of each mouse and weighed. The rate of the reduction in the weight of the tumor (carcinoma) obtained from the group of mice treated with MI43-37F11 substance was evaluated in term of the rate (%) of inhibition, with such an assumption that the weight of the tumor obtained from the control group of mice was amounting to 100. […]

mouse IMC carcinoma = assay: Inhibition of proliferation of mouse IMC carcinoma cells; type: cell-based; settings: 48 h, 37° C, 2 days
Protocol: (§1) A cell suspension containing cells of mouse Leukemia L1210, mouse Leukemia P388, mouse Leukemia EL4, mouse IMC carcinoma or human lung cancer LX-1 cells in a culture medium containing 10% calf serum at a cell density of 1 x 10^5 cells/ml was prepared, and 200 μl-portion of the cell suspension so prepared was placed in a microplate and then added with a solution of MI43-37F11 substance at varying concentrations (dissolved in a mixture of water and dimethylsulfoxide (95:5)). The cell suspension containing the test compound added was subsequently incubated at 37° C for 2 days (but 5 days for the LX-1 cells).
(§2) After the incubation, the number of the cells of the L1210 cells, P388 cells, the EL4 cells and the IMC carcinoma cells in the treated groups was counted by means of Coulter-counter. The control group (untreated) of the cell suspension to which the test compound was not added was incubated in the same way as above and then the number of the cells was similarly counted.
(§3) Rate (%) of inhibition of the cell proliferation of the treated group against that of the control group (untreated) was evaluated. […]

peritoneal macrophages = assay: Activation of peritoneal macrophages (production of O2-); type: in vivo, CDF1 mice; settings: for Rate (%) of increase in production of O2^-: one day before harvest, control 100
Protocol: (3) Experiments for estimation of the activity of MI43-37F11 substance to activate peritoneal macrophages were conducted by the following procedure. Thus, one day before the harvest of the peritoneal macrophages, the antibiotic MI43-37F11 substance was intraperitoneally administered to CDF1 mice (8-week old, female, 3 mice in each group) at a dosage of 50 mg/kg, 12.5 mg/kg or 3.125 mg/kg. One day after the administration, the macrophages were harvested from the peritoneal cavity of the treated mice and placed into a culture medium present in a plastic dish (Falcone, No. 3002, […], a product of Decton Dikinson & Company) at the cell concentration of 1×10^6 cells/m(, followed by incubation of the macrophages. The incubated medium containing the macrophages was then added with 100 ng/ml of phorbol myristate acetate to elicite the macrophages for their production of O2 -. The amount of O2 - was determined by reductive reaction with cytochrome C. The control group of mice (untreated) received only intraperitoneal injection of physiological saline in place of the administration of MI43-37F11 substance before the harvest of the peritoneal macrophages was done. Assumed that the amount of O2 - as produced and liberated by the peritoneal macrophages which were harvested from the mice of the control group was amounting to 100, the rate of increase in the amount of O2 - as produced by the peritoneal macrophages of the mice of the treated group was evaluated. In other words, the rate (%) of increase in the production of O2 - by the peritoneal macrophages of the mice of the treated group was calculated according to the following equation; [formula] where T means the amount of O2^- produced by the peritoneal macrophages of the mice of the treated group and C means the amount of O2^- produced by the peritoneal macrophages of the control group (untreated).

mouse Leukemia L1210 = assay: Inhibition of proliferation of mouse leukemia L1210 cells; type: cell-based; settings: 48 h; mouse leukemia L1210, 37° C, 2 days
Protocol: as §1, §2, §3

`COc1cc(O)c2c(=O)oc(CO)cc2c1` [MI43-37F11 substance] was tested, and the “activity against Ehrlich carcinoma” value (Ehrlich carcinoma) was “high activity”, the IC50 (mouse IMC carcinoma) was 72 µg/mL (≈ 324 µM) and the “Rate (%) of increase in production of O2^-” value (from here on “Rate (%) of increase”) (peritoneal macrophages; 3.125 mg/kg i.p.) was 105%. For the same compound, the “Rate (%) of increase” value (peritoneal macrophages; 12.5 mg/kg i.p.) was 127%, the “Rate (%) of increase” value (peritoneal macrophages; 50 mg/kg i.p.) was 255% and the “increased production of O2- by peritoneal macrophages” value (peritoneal macrophages; summary in words) was “effective”. The IC50 (mouse Leukemia L1210) was 50 µg/mL (≈ 225 µM).
